Laboratory results taken from ChEMBL document CHEMBL1201862, “PubChem BioAssay data set” (2004).
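Assay format: 96-well plates, 48-hour exposure. The concentration for 50% growth inhibition is given as GI50.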 Calls of active or inactive are those of the source. Cut-off read from the data, not from the text of the source: active = GI50 up to about 1.1 µM and inactive = higher.

Key:
Test in all cases: NCI tumour cell line growth inhibition, 48 h
A549 = tested on: A549
ACHN = tested on: ACHN
CCRF-CEM = tested on: CCRF-CEM
IGROV-1 = tested on: IGROV-1
Malme-3M = tested on: Malme-3M
NCI-H226 = tested on: NCI-H226
OVCAR-5 = tested on: OVCAR-5
OVCAR-8 = tested on: OVCAR-8
PC-3 = tested on: PC-3
SF-268 = tested on: SF-268
SF-539 = tested on: SF-539
SK-MEL-28 = tested on: SK-MEL-28
SNB-75 = tested on: SNB-75
SW-620 = tested on: SW-620
TK-10 = tested on: TK-10
UO-31 = tested on: UO-31
CAKI-1 = tested on: CAKI-1
COLO 205 = tested on: COLO 205
SK-MEL-2 = tested on: SK-MEL-2
MDA-MB-231 = tested on: MDA-MB-231

Row | SMILES | GI50 (A549) | GI50 (ACHN) | GI50 (CCRF-CEM) | GI50 (IGROV-1) | GI50 (Malme-3M) | GI50 (NCI-H226) | GI50 (OVCAR-5) | GI50 (OVCAR-8) | GI50 (PC-3) | GI50 (SF-268) | GI50 (SF-539) | GI50 (SK-MEL-28) | GI50 (SNB-75) | GI50 (SW-620) | GI50 (TK-10) | GI50 (UO-31) | GI50 (CAKI-1) | GI50 (COLO 205) | GI50 (SK-MEL-2) | GI50 (MDA-MB-231)
1 | Cc1c2c3ccccc3nc-2n(C)c2ccccc12 | 1.57 µM (inactive) | 0.611 µM (active) | 0.724 µM (active) | 2.32 µM (inactive) | 2.08 µM (inactive) | 2.77 µM (inactive) | 2.61 µM (inactive) | 1.69 µM (inactive) | 2.17 µM (inactive) | 3.83 µM (inactive) | 2.99 µM (inactive) | 3.42 µM (inactive) | 2.48 µM (inactive) | 1.11 µM (active) | 1.94 µM (inactive) | 1.79 µM (inactive) | – | – | – | –
2 | CC12CCC(C/C1=N\NC(N)=O)C2(C)C (stereo not drawn) | > 100 µM (inactive) | > 100 µM (inactive) | > 100 µM (inactive) | > 100 µM (inactive) | > 100 µM (inactive) | > 100 µM (inactive) | > 100 µM (inactive) | > 100 µM (inactive) | > 100 µM (inactive) | > 100 µM (inactive) | – | > 100 µM (inactive) | > 100 µM (inactive) | > 100 µM (inactive) | > 100 µM (inactive) | > 100 µM (inactive) | > 100 µM (inactive) | > 100 µM (inactive) | > 100 µM (inactive) | –
3 | COCCCCCC(=O)CP(=O)(OC)OC | > 100 µM (inactive) | > 100 µM (inactive) | > 100 µM (inactive) | > 100 µM (inactive) | > 100 µM (inactive) | > 100 µM (inactive) | > 100 µM (inactive) | > 100 µM (inactive) | – | > 100 µM (inactive) | > 100 µM (inactive) | > 100 µM (inactive) | > 100 µM (inactive) | > 100 µM (inactive) | > 100 µM (inactive) | > 100 µM (inactive) | > 100 µM (inactive) | > 100 µM (inactive) | > 100 µM (inactive) | –
4 | O=C1c2ccccc2C2(O)Nc3c(ccc4ccccc34)C12O (stereo not drawn) | > 100 µM (inactive) | > 100 µM (inactive) | 55.3 µM (inactive) | > 100 µM (inactive) | > 100 µM (inactive) | > 100 µM (inactive) | > 100 µM (inactive) | > 100 µM (inactive) | – | > 100 µM (inactive) | > 100 µM (inactive) | > 100 µM (inactive) | > 100 µM (inactive) | > 100 µM (inactive) | > 100 µM (inactive) | 95.5 µM (inactive) | > 100 µM (inactive) | > 100 µM (inactive) | > 100 µM (inactive) | –
5 | O=c1[nH]c(=O)c2c([nH]1)[nH]c1ccc(Br)cc12 | > 100 µM (inactive) | 70 µM (inactive) | 82.2 µM (inactive) | 77.6 µM (inactive) | > 100 µM (inactive) | > 100 µM (inactive) | > 100 µM (inactive) | > 100 µM (inactive) | – | 97.1 µM (inactive) | > 100 µM (inactive) | – | 74.5 µM (inactive) | > 100 µM (inactive) | > 100 µM (inactive) | 56.9 µM (inactive) | > 100 µM (inactive) | > 100 µM (inactive) | > 100 µM (inactive) | 93.5 µM (inactive)
